# Biological target: T1, Human Polθ polymerase domain (aa1820-2590) (Homo sapiens, UniProt O75417)
# T1 construct: Human Polθ polymerase domain (aa1820-2590) was expressed in E. coli; made in house; host or cells: E. coli
# T1 sequence (O75417 1820-2590): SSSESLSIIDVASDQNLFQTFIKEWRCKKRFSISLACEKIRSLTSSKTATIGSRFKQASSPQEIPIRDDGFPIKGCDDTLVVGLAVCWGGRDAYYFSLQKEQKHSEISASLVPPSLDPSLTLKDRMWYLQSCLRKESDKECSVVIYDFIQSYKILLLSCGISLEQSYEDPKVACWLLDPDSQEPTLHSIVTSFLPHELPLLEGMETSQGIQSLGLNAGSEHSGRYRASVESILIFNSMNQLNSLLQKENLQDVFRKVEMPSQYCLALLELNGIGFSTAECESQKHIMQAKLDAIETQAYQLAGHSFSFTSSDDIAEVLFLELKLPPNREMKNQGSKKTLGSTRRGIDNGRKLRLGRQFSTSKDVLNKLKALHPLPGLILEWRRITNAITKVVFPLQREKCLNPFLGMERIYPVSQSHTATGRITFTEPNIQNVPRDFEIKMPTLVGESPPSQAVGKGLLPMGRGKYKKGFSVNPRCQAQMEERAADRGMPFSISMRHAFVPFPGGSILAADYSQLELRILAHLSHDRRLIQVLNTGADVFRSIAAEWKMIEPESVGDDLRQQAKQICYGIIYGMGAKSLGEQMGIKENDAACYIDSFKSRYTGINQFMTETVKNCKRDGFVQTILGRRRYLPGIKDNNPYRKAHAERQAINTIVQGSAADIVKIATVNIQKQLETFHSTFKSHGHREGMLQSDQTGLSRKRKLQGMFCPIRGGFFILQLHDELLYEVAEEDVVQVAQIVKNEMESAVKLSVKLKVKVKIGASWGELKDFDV
# Assay: Polθ Polymerase Domain Kinact/KI Assay (PicoGreen)
# Type: biochemical
# Conditions: 0.8 nM Polθ, 100 nM DNA substrate, kobs vs [I] fit for 2-step covalent inhibitor
# Summary of the method: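 Covalent Kinact/KI by PicoGreen DNA synthesis readout: E. coli-expressed Polθ polymerase domain (0.8 nM), 100 nM annealed DNA substrate, […], Tris pH 7.5 buffer with DTT, 1% DMSO; EDTA-stopped over 0–60 min time course. kobs from progress curves, then kobs vs [I] fit to two-step covalent model.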
row,Kinact/Kl [M⁻¹ s⁻¹],Structure (SMILES)
1,2e+06,"C=CC(=O)N1CCC(n2cnc(CN3C[C@H]4CC(=O)N(c5cc(C(F)(F)F)cc(C)n5)[C@@H]4C(=O)N(C)c4cccc(Cl)c43)n2)CC1 [Example 135, (3aR,11aS)-5-((1-(1-acryloylpiperidin-4-yl)-1H-1,2,4-triazol-3-yl)methyl)-6-chloro-10-methyl-1-(6-methyl-4-(trifluoromethyl)pyridin-2-yl)-1,3a,4,5,10,11a-hexahydro-2H-benzo[b]pyrrolo[2,3-f][1,4]diazocine-2,11(3H)-dione]"
2,1.41e+06,"C=C(CN(C)C)C(=O)N1CC(c2cc(CN3C[C@H]4CC(=O)N(c5cc(C(F)(F)F)cc(C)n5)[C@@H]4C(=O)N(C)c4cccc(C)c43)ccc2F)C1 [Example 187, (3aR,11aS)-5-(3-(1-(2-((dimethyl-amino)methyl)-acryloyl)azetidin-3-yl)-4-fluorobenz-yl)-6,10-dimethyl-1-(6-methyl-4-(trifluoromethyl)-pyridin-2-yl)-1,3a,4,5,10,11a-hexahydro-2H-benzo[b]pyrrolo [2,3-f][1,4]diazo-cine-2,11(3H)-dione]"
3,170000,"C=CC(=O)N1CC(c2nc(CN3C[C@H]4CC(=O)N(c5cc(C(F)(F)F)cc(C)n5)[C@@H]4C(=O)N(C)c4cccc(F)c43)n(C)n2)C1 [Example 99, (3aR,11aS)-5-((3-(1-acryloylazetidin-3-yl)-1-methyl-1H-1,2,4-triazol-5-yl)methyl)-6-fluoro-10-methyl-1-(6-methyl-4-(trifluoromethyl)pyridin-2-yl)-1,3a,4,5,10,11a-hexahydro-2H-benzo[b]pyrrolo[2,3-f][1,4]diazocine-2,11(3H)-dione]"
4,1.57e+06,"Cc1cc(C(F)(F)F)cc(N2C(=O)C[C@@H]3CN(Cc4ccc(NC(=O)C5=CCCN(C)C5)cc4)c4c(C)cccc4N(C)C(=O)[C@H]32)n1 [Example 211, N-(4-(((3aR, 11aS)-6,10-dimethyl-1-(6-methyl-4-(trifluoromethyl)pyridin-2-yl)-2,11-dioxo-1,2,3,3a,4,10,11,11a-octahydro-5H-benzo[b]pyrrolo [2,3-f][1,4]diazocin-5-yl)methyl)phenyl)-1-methyl-1,2,5,6-tetrahydropyridine-3-carboxamide]"
5,6.47e+06,"C=CC(=O)N1CCn2cc(CN3C[C@H]4CC(=O)N(c5cc(C(F)(F)F)cc(C)n5)[C@@H]4C(=O)N(C)c4cccc(Cl)c43)nc2C1 [Example 136, (3aR,11aS)-5-((7-acryloyl-5,6,7,8-tetrahydroimidazo[1,2-a]pyrazin-2-yl)methyl)-6-chloro-10-methyl-1-(6-methyl-4-(trifluoromethyl)pyridin-2-yl)-1,3a,4,5,10,11a-hexahydro-2H-benzo[b]pyrrolo[2,1-f][1,4]diazocine-2,11(3H)-dione]"
6,60000,"C=CC(=O)N1CCC[C@H]1c1nnc(CN2C[C@H]3CC(=O)N(c4cc(C(F)(F)F)cc(C)n4)[C@@H]3C(=O)N(C)c3cccc(C)c32)o1 [Example 273, (3aR,11aS)-5-((5-((S)-1-acryloylpyrrolidin-2-yl)-1,3,4-oxadiazol-2-yl)methyl)-6,10-dimethyl-1-(6-methyl-4-(trifluoromethyl)pyridin-2-yl)-1,3a,4,5,10,11a-hexahydro-2H-benzo[b]pyrrolo[2,3-f][1,4]diazocine-2,11(3H)-dione]"
7,650000,"C=CC(=O)N1CC(c2cccc(CN3C[C@H]4CC(=O)N(c5cc(C(F)(F)F)cc(C)n5)[C@@H]4C(=O)N(C)c4cccc(F)c43)c2)C1 [Example 127, (3aR,11aS)-5-(3-(1-acryloylazetidin-3-yl)benzyl)-6-fluoro-10-methyl-1-(6-methyl-4-(trifluoromethyl)pyridin-2-yl)-1,3a,4,5,10,11a-hexahydro-2H-benzo[b]pyrrolo[2,3-f][1,4]diazocine-2,11(3H)-dione]"
8,1.72e+06,"C=CC(=O)N1CC[C@@H](O)[C@H](N(C)CCN2C[C@H]3CC(=O)N(c4cc(C(F)(F)F)cc(C)n4)[C@@H]3C(=O)N(C)c3cccc(Cl)c32)C1 (relative stereo) [Example 113, (3aR,11aS)-5-(2-(((rel-trans)-1-acryloyl-4-hydroxypiperidin-3-yl)(methyl)amino)ethyl)-6-chloro-10-methyl-1-(6-methyl-4-(trifluoromethyl)pyridin-2-yl)-1,3a,4,5,10,11a-hexahydro-2H-benzo[b]pyrrolo[2,3-f][1,4]diazocine-2,11(3H)-dione]"
9,140000,"C=CC(=O)N1CCC12CCN(CCN1C[C@H]3CC(=O)N(c4cc(C(F)(F)F)cc(C)n4)[C@@H]3C(=O)N(C)c3cccc(F)c31)C2 (single isomer, unassigned) [Example 21b]"
10,1.37e+06,"C=CC(=O)N1Cc2ncc(CN3C[C@H]4CC(=O)N(c5cc(C(F)(F)F)cc(C)n5)[C@@H]4C(=O)N(C)c4cccc(C)c43)cc2[C@H]1CC#N (racemic) [Example 320a, 2-((R/S)-6-acryloyl-3-(((3aR,11aS)-6,10-dimethyl-1-(6-meth-yl-4-(trifluorometh-yl)pyridin-2-yl)-2,11-dioxo-1,2,3,3a, 4,10,11,11a-octa-hydro-5H-benzo[b]pyrrolo[2,3-f][1,4]diazocin-5-yl)meth-yl)-6,7-dihydro-5H-pyrrolo[3,4-b]pyr-idin-5-yl)acetonitrile]"
11,1.22e+06,"Cc1cc(C(F)(F)F)cc(N2C(=O)C[C@@H]3CN(Cc4ccc5c(c4)[C@H](CC#N)N(C(=O)/C=C/CN(C)C)C5)c4c(Cl)cccc4N(C)C(=O)[C@H]32)n1 (racemic) [Example 311b, 2-((S/R)-6-(((3aR,11aS)-6-chloro-10-methyl-1-(6-methyl-4-(trifluoromethyl)pyridin-2-yl)-2,11-dioxo-1,2,3,3a,4,10,11,11a-octahydro-5H-benzo[b]pyrrolo[2,3-f][1,4]diazocin-5-yl)methyl)-2-((E)-4-(dimethylamino)but-2-enoyl)isoindolin-1-yl)acetonitrile]"
12,740000,"C=CC(=O)N1Cc2nc(CN3C[C@H]4CC(=O)N(c5cc(C(F)(F)F)cc(C)n5)[C@@H]4C(=O)N(C)c4cccc(C)c43)ccc2C1CO (stereo partly drawn) [Example 238, (3aR,11aS)-5-((6-acryloyl-5-(hydroxymethyl)-6,7-dihydro-5H-pyrrolo[3,4-b]pyridin-2-yl)methyl)-6,10-dimethyl-1-(6-methyl-4-(trifluoromethyl)pyridin-2-yl)-1,3a,4,5,10,11a-hexahydro-2H-benzo[b]pyrrolo[2,3-f][1,4]diazocine-2,11(3H)-dione]"
13,1.16e+06,"C=CC(=O)N1CC(c2noc(CN3C[C@H]4CC(=O)N(c5cc(C(F)(F)F)cc(C)n5)[C@@H]4C(=O)N(C)c4cccc(F)c43)n2)C1 [Example 102, (3aR,11aS)-5-((3-(1-acryloylazetidin-3-yl)-1,2,4-oxadiazol-5-yl)methyl)-6-fluoro-10-methyl-1-(6-methyl-4-(trifluoromethyl)pyridin-2-yl)-1,3a,4,5,10,11a-hexahydro-2H-benzo[b]pyrrolo[2,3-f][1,4]diazocine-2,11(3H)-dione]"
14,2.06e+06,"C=CC(=O)N1C[C@H]2CN(CCN3C[C@H]4CC(=O)N(c5cc(C(F)(F)F)cc(C)n5)[C@@H]4C(=O)N(C)c4cccc(F)c43)CCN2[C@H](C)C1 (relative stereo) [Example 64a, (3aR,11aS)-5-(2-((6R/S,9aR/S)-8-acryloyl-6-methyloctahydro-2H-pyrazino[1,2-a]pyrazin-2-yl)ethyl)-6-fluoro-10-methyl-1-(6-methyl-4-(trifluoromethyl)pyridin-2-yl)-1,3a,4,5,10,11a-hexahydro-2H-benzo[b]pyrrolo[2,3-f][1,4]diazocine-2,11(3H)-dione]"
15,1.27e+06,"C=C(CN(C)C)C(=O)NCC12CC(CN3C[C@H]4CC(=O)N(c5cc(C(F)(F)F)cc(C)n5)[C@@H]4C(=O)N(C)c4cccc(C)c43)(C1)C2 [Example 185, N-((3-(((3aR,11aS)-6,10-dimethyl-1-(6-methyl-4-(trifluoromethyl)-pyridin-2-yl)-2,11-dioxo-1,2,3,3a,4, 10,11,11a-octa-hydro-5H-benzo [b]pyrrolo[2,3-f] [1,4]diazocin-5-yl)methyl)bicyclo [1.1.1]pentan-1-yl)methyl)-2-((dimethylamino)-methyl)acrylamide]"

row,Structure (SMILES),Kinact/Kl [M⁻¹ s⁻¹]
1,"C=CC(=O)N1CCN(CCCN2C[C@H]3CC(=O)N(c4cc(C(F)(F)F)cc(C)n4)[C@@H]3C(=O)N(C)c3cccc(Cl)c32)CC1CC#N (mixture of isomers) [Example 267a, 2-((S/R)-1-acryloyl-4-(3-((3aR,11aS)-6-chloro-10-methyl-1-(6-methyl-4-(trifluoromethyl)pyridin-2-yl)-2,11-dioxo-1,2,3,3a,4,10,11,11a-octahydro-5H-benzo[b]pyrrolo[2,3-f][1,4]diazocin-5-yl)propyl)piperazin-2-yl)acetonitrile]",1.24e+06
